Earlier results as cited in US20110287437A1, “ASSAYS TO PREDICT CARDIOTOXICITY” (priority 2010, published 2011).

What was measured:
[1] = assessment from public literature and internal data; training set N=19
[2] = treatment of patients; prescribing information

Compound	Cardiotoxicity [1]	Cardiotoxicity / adverse cardiac effects reported [2]
COc1ccc2c(O[C@@H]3C[C@H]4C(=O)N[C@]5(C(=O)O)C[C@H]5/C=C\CCCCC[C@H](NC(=O)OC5CCCC5)C(=O)N4C3)cc(-c3csc(NC(C)C)n3)nc2c1 [BILN 2061]	Positive	
COc1cccc2c1C(=O)c1c(O)c3c(c(O)c1C2=O)C[C@@](O)(C(=O)CO)C[C@@H]3O[C@H]1C[C@H](N)[C@H](O)[C@H](C)O1 [Doxorubicin]	Positive	
CO[C@H]1C[C@@H]2CC[C@@H](C)[C@@](O)(O2)C(=O)C(=O)N2CCCC[C@H]2C(=O)O[C@H]([C@H](C)C[C@@H]2CC[C@@H](OCCO)[C@H](OC)C2)CC(=O)[C@H](C)/C=C(\C)[C@@H](O)[C@@H](OC)C(=O)[C@H](C)C[C@H](C)/C=C/C=C/C=C/1C [Everolimus]	Positive	
COc1cc2ncnc(Nc3ccc(F)c(Cl)c3)c2cc1OCCCN1CCOCC1 [Iressa]	Negative	
CNC(=O)c1cc(Oc2ccc(NC(=O)Nc3ccc(Cl)c(C(F)(F)F)c3)cc2)ccn1 [Nexavar, sorafenib]	Positive	mentioned in the prescribing information
Cc1cn(-c2cc(NC(=O)c3ccc(C)c(Nc4nccc(-c5cccnc5)n4)c3)cc(C(F)(F)F)c2)cn1 [Nilotinib]	Positive	
Cc1nc(Nc2ncc(C(=O)Nc3c(C)cccc3Cl)s2)cc(N2CCN(CCO)CC2)n1 [Sprycel, dasatinib]	Positive	mentioned in the prescribing information
CCN(CC)CCNC(=O)c1c(C)[nH]c(/C=C2\C(=O)Nc3ccc(F)cc32)c1C [Sutent, sunitinib]	Positive	mentioned in the prescribing information
C#Cc1cccc(Nc2ncnc3cc(OCCOC)c(OCCOC)cc23)c1 [Tarceva]	Negative	
CS(=O)(=O)CCNCc1ccc(-c2ccc3ncnc(Nc4ccc(OCc5cccc(F)c5)c(Cl)c4)c3c2)o1 [Tykerb]	Negative	
COc1cc2c(Nc3ccc(Br)cc3F)ncnc2cc1OCC1CCN(C)CC1 [Zactima]	Positive	
bevacizumab: bevacizumab (Avastin)		mentioned in the prescribing information
